The target of one experiment is Human mTOR (FLAG-TOR) (Homo sapiens, UniProt P42345). Briefly: mTOR kinase assay (DELFIA format, purified enzyme). It counts as biochemical. The following applies: read-out: IC50 mTOR.
The target in the next experiment is PI3K-α (Homo sapiens, UniProt P42336). Briefly: PI3K-alpha fluorescence polarization assay.
The target in a further experiment is PI3K-γ (Homo sapiens, UniProt P48736). Kind of experiment: PI3K-gamma fluorescence polarization assay.
Experiment [1] relates to human prostate LNCap tumor cell line. Kind of experiment: In vitro cell culture growth assay (MTS), LNCap. The following applies: Homo sapiens, LNCaP, 72 h, read-out: IC50 LNCap.

Like-named read-outs stand apart in the source and are kept apart here. A value given as a limit tells only on which side of the number the result lay.

As a reminder, the IC50 is the concentration needed to halve the response being measured.

Sequence of PI3K-α (P42336 whole entry, species assumed): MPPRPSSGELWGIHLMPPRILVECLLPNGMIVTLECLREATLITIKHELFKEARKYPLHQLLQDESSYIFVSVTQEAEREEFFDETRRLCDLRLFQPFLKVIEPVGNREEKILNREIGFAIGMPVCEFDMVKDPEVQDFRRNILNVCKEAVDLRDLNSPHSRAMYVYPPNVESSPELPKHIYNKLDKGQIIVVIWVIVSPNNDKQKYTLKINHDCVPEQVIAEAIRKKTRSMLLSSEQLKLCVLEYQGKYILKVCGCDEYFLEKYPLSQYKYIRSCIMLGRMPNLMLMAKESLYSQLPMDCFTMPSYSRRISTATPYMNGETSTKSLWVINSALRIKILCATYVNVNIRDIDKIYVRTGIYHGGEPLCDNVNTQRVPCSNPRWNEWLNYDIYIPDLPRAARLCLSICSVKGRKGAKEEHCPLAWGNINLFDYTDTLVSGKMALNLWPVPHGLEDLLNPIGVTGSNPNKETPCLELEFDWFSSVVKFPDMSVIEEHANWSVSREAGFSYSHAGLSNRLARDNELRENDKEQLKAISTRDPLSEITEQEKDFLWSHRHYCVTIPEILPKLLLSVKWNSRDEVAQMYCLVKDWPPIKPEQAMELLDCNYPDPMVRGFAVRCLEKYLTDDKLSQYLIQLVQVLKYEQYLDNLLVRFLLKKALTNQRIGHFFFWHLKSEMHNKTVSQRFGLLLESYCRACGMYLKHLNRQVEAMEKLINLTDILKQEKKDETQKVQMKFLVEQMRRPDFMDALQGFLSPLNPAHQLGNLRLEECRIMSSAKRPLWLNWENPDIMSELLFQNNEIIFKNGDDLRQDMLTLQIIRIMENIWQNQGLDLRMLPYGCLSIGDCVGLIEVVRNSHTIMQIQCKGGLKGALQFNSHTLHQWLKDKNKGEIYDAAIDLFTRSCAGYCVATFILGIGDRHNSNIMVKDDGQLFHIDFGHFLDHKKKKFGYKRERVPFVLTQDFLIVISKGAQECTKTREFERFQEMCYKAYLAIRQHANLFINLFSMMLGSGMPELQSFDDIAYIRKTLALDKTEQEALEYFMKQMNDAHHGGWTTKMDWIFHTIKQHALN
Sequence of PI3K-α (P27986 whole entry partner, species assumed): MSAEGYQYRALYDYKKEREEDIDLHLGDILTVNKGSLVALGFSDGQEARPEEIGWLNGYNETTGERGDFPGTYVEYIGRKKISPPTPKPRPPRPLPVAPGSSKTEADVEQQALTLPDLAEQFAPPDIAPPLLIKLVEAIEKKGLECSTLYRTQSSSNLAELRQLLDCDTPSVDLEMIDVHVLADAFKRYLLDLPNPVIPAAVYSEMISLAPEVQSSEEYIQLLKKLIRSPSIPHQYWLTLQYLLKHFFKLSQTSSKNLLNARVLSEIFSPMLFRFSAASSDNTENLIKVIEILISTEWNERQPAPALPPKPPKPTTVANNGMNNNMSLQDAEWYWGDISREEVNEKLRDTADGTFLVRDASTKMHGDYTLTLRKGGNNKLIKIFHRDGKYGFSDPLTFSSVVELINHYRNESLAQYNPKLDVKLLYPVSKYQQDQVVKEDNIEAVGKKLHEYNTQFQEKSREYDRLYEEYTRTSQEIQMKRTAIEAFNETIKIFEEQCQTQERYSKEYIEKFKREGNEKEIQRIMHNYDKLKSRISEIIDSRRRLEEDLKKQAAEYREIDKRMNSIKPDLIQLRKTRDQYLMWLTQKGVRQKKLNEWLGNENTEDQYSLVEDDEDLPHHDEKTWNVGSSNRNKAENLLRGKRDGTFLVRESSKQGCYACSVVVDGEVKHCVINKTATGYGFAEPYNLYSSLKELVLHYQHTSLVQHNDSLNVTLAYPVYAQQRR
Sequence of PI3K-γ (P48736 whole entry, species assumed): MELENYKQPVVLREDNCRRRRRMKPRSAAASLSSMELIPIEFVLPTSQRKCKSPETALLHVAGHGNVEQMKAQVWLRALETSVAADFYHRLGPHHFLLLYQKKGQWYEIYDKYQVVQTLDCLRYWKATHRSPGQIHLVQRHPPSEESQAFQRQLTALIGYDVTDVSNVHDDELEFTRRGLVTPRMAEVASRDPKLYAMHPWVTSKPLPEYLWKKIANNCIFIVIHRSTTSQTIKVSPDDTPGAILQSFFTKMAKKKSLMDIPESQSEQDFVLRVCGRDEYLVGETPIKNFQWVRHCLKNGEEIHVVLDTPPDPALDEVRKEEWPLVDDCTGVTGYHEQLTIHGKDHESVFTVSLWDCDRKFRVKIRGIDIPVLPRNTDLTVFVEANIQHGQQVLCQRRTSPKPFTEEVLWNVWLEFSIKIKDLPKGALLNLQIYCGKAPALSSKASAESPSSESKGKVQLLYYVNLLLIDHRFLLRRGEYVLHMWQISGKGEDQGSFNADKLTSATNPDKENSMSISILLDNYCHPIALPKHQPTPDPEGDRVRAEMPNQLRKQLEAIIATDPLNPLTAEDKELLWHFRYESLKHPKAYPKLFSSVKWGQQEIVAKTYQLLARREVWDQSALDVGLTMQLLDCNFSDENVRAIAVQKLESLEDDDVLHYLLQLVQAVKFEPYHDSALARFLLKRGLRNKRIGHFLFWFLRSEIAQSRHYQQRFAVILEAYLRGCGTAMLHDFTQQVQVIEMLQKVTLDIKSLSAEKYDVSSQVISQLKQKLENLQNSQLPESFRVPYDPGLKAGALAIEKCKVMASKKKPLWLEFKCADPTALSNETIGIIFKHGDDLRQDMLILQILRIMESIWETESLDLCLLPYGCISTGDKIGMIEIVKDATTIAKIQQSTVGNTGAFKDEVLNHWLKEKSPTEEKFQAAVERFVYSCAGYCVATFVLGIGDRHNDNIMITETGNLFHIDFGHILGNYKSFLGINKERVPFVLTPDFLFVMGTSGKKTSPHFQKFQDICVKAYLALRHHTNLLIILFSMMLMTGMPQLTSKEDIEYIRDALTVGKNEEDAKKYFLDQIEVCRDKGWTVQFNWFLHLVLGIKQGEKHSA
Sequence of Human mTOR (FLAG-TOR) (P42345 1360-2549 limits assumed): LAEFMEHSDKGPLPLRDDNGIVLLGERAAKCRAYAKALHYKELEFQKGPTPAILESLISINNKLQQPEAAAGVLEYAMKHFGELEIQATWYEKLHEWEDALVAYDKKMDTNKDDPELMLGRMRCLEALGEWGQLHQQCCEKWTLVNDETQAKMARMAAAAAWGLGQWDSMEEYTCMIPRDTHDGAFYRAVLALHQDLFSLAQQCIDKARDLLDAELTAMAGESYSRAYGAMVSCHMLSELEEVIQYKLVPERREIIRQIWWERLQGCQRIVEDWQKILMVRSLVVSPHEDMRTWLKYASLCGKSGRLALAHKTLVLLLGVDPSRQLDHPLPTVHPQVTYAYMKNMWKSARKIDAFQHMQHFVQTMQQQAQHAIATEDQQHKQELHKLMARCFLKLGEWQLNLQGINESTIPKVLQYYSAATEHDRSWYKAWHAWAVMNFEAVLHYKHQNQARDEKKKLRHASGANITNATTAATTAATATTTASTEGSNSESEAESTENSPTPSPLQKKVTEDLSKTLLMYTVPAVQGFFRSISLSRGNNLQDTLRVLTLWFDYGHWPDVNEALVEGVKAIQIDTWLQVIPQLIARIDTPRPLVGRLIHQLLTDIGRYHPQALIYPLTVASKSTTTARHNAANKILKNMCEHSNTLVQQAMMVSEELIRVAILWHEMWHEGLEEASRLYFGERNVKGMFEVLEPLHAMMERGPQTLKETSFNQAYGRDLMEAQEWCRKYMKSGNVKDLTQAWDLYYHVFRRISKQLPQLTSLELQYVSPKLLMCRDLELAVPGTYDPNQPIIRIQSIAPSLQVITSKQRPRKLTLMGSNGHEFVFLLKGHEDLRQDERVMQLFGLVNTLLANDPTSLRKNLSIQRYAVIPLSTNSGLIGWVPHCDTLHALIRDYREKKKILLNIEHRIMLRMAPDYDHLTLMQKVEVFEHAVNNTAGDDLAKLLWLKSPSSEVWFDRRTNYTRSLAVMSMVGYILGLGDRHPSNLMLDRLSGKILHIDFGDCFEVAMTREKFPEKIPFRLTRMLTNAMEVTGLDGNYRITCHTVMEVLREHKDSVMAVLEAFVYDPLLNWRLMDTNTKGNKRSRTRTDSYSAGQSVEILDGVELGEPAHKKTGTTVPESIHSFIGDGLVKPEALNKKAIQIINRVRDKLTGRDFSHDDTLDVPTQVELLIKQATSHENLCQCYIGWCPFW

As for `O=C(Nc1ccc(-c2nc(NCCC3CCNCC3)nc(N3CC4CCC(C3)O4)n2)cc1)Nc1cccnc1` [Example 170, 1-(4-{4-(8-oxa-3-azabicyclo[3.2.1]oct-3-yl)-6-[(2-piperidin-4-ylethyl)amino]-1,3,5-triazin-2-yl}phenyl)-3-pyridin-3-ylurea], the IC50 on Human mTOR (FLAG-TOR) turned out to be 4 nM; at PI3K-α (read-out: IC50 PI3Kα) it was 384 nM; at PI3K-γ (read-out: IC50 PI3Kγ), 9500 nM; in experiment [1], 4500 nM.

For the molecule `CN1CCN(c2nc(-c3ccc(NC(=O)Nc4cccnc4)cc3)nc(N3CC4CCC(C3)O4)n2)C1` [Example 171, 1-{4-[4-(3-methylimidazolidin-1-yl)-6-(8-oxa-3-azabicyclo[3.2.1]oct-3-yl)-1,3,5-triazin-2-yl]phenyl}-3-pyridin-3-ylurea], the IC50 on Human mTOR (FLAG-TOR) was determined as 1.2 nM; at PI3K-α (read-out: IC50 PI3Kα) it was 300 nM; on PI3K-γ (read-out: IC50 PI3Kγ), 9500 nM; in experiment [1], 5200 nM.

Turning to `COCC(COC)Oc1nc(-c2ccc(NC(=O)Nc3ccncc3)cc2)nc(N2CC3CCC(C2)O3)n1` [Example 174, 1-(4-{4-[2-methoxy-1-(methoxymethyl)ethoxy]-6-(8-oxa-3-azabicyclo[3.2.1]oct-3-yl)-1,3,5-triazin-2-yl}phenyl)-3-pyridin-4-ylurea], the half-maximal inhibitory concentration (IC50) on Human mTOR (FLAG-TOR) was 2.1 nM; at PI3K-α (read-out: IC50 PI3Kα), 861 nM; on PI3K-γ (read-out: IC50 PI3Kγ), 727 nM; in experiment [1], 4.25 nM.

Turning to `COCC(COC)Oc1nc(-c2ccc(NC(=O)Nc3ccc(N4CCN(C)CC4)cc3)cc2)nc(N2CC3CCC(C2)O3)n1` [Example 175, 1-(4-{4-[2-methoxy-1-(methoxymethyl)ethoxy]-6-(8-oxa-3-azabicyclo[3.2.1]oct-3-yl)-1,3,5-triazin-2-yl}phenyl)-3-[4-(4-methylpiperazin-1-yl)phenyl]urea], the IC50 is 4.8 nM on Human mTOR (FLAG-TOR), 549 nM on PI3K-α (read-out: IC50 PI3Kα), 453 nM at PI3K-γ (read-out: IC50 PI3Kγ) and 9.5 nM in experiment [1].

Regarding `COCC(COC)Oc1nc(-c2ccc(NC(=O)OCCO)cc2)nc(N2CC3CCC(C2)O3)n1` [Example 176, 2-hydroxyethyl (4-{4-[2-methoxy-1-(methoxymethyl)ethoxy]-6-(8-oxa-3-azabicyclo[3.2.1]oct-3-yl)-1,3,5-triazin-2-yl}phenyl)carbamate], the IC50 on Human mTOR (FLAG-TOR) stood at 22 nM; at PI3K-α (read-out: IC50 PI3Kα), 1120 nM; at PI3K-γ (read-out: IC50 PI3Kγ), 3730 nM; in experiment [1], 1000 nM.

For the molecule `CNC(=O)Nc1ccc(-c2nc(OC(COC)COC)nc(N3CC4CCC(C3)O4)n2)cc1` [Example 177, 1-(4-{4-[2-methoxy-1-(methoxymethyl)ethoxy]-6-(8-oxa-3-azabicyclo[3.2.1]oct-3-yl)-1,3,5-triazin-2-yl}phenyl)-3-methylurea], the IC50 turned out to be 1.6 nM on Human mTOR (FLAG-TOR), 5840 nM on PI3K-α (read-out: IC50 PI3Kα), 4120 nM on PI3K-γ (read-out: IC50 PI3Kγ) and 600 nM in experiment [1].

Turning to `COCC(COC)Oc1nc(-c2ccc(NC(=O)NC3CC3)cc2)nc(N2CC3CCC(C2)O3)n1` [Example 178, 1-cyclopropyl-3-(4-{4-[2-methoxy-1-(methoxymethyl)ethoxy]-6-(8-oxa-3-azabicyclo[3.2.1]oct-3-yl)-1,3,5-triazin-2-yl}phenyl)urea], the IC50 was 14 nM on Human mTOR (FLAG-TOR), greater than 10000 nM against PI3K-α, greater than 10000 nM against PI3K-γ and 850 nM in experiment [1].

In the case of `O=C(Nc1ccc(-c2nc(OCC3CCCNC3)nc(N3CC4CCC(C3)O4)n2)cc1)Nc1cccnc1` (stereo not drawn) [Example 180, 1-{4-[4-(8-oxa-3-azabicyclo[3.2.1]oct-3-yl)-6-(piperidin-3-ylmethoxy)-1,3,5-triazin-2-yl]phenyl}-3-pyridin-3-ylurea], the IC50 at Human mTOR (FLAG-TOR) is 1.6 nM; at PI3K-α (read-out: IC50 PI3Kα), 531 nM; at PI3K-γ (read-out: IC50 PI3Kγ) it was 8000 nM; in experiment [1] it was 5800 nM.

Regarding `NCCCCOc1nc(-c2ccc(NC(=O)Nc3cccnc3)cc2)nc(N2CC3CCC(C2)O3)n1` [Example 181, 1-{4-[4-(4-aminobutoxy)-6-(8-oxa-3-azabicyclo[3.2.1]oct-3-yl)-1,3,5-triazin-2-yl]phenyl}-3-pyridin-3-ylurea], the IC50 at Human mTOR (FLAG-TOR) turned out to be 11 nM; at PI3K-α (read-out: IC50 PI3Kα), 426 nM; at PI3K-γ (read-out: IC50 PI3Kγ) it was 6730 nM; in experiment [1] it was 3400 nM.

In the case of `O=C(Nc1ccc(-c2nc(OCCC3CCNCC3)nc(N3CC4CCC(C3)O4)n2)cc1)Nc1cccnc1` [Example 182, 1-{4-[4-(8-oxa-3-azabicyclo[3.2.1]oct-3-yl)-6-(2-piperidin-4-ylethoxy)-1,3,5-triazin-2-yl]phenyl}-3-pyridin-3-ylurea], the IC50 on Human mTOR (FLAG-TOR) came to 3 nM; at PI3K-α (read-out: IC50 PI3Kα) it was 308 nM; on PI3K-γ (read-out: IC50 PI3Kγ), 5000 nM; in experiment [1], 3500 nM.

Consider `O=C(Nc1ccc(-c2nc(OCC3CCNCC3)nc(N3CC4CCC(C3)O4)n2)cc1)Nc1cccnc1` [Example 183, 1-{4-[4-(8-oxa-3-azabicyclo[3.2.1]oct-3-yl)-6-(piperidin-4-ylmethoxy)-1,3,5-triazin-2-yl]phenyl}-3-pyridin-3-ylurea], for which the IC50 came out at 14 nM at Human mTOR (FLAG-TOR), 526 nM at PI3K-α (read-out: IC50 PI3Kα), 11000 nM at PI3K-γ (read-out: IC50 PI3Kγ) and 8500 nM in experiment [1].

In the case of `CNc1nc(-c2ccc(NC(=O)Nc3cccnc3)cc2)nc(N2CC3CCC(C2)O3)n1` [Example 190, 1-{4-[4-(methylamino)-6-(8-oxa-3-azabicyclo[3.2.1]oct-3-yl)-1,3,5-triazin-2-yl]phenyl}-3-pyridin-3-ylurea], the IC50 on Human mTOR (FLAG-TOR) worked out at 6.3 nM; on PI3K-α (read-out: IC50 PI3Kα), 780 nM; on PI3K-γ (read-out: IC50 PI3Kγ) it was 1320 nM; in experiment [1], 950 nM.

As for `CCNc1nc(-c2ccc(NC(=O)Nc3cccnc3)cc2)nc(N2CC3CCC(C2)O3)n1` [Example 191, 1-{4-[4-(ethylamino)-6-(8-oxa-3-azabicyclo[3.2.1]oct-3-yl)-1,3,5-triazin-2-yl]phenyl}-3-pyridin-3-ylurea], the IC50 on Human mTOR (FLAG-TOR) was found to be 16 nM; on PI3K-α (read-out: IC50 PI3Kα), 435 nM; on PI3K-γ (read-out: IC50 PI3Kγ), 4630 nM; in experiment [1], 220 nM.

Turning to `CN(C)c1nc(-c2ccc(NC(=O)Nc3cccnc3)cc2)nc(N2CC3CCC(C2)O3)n1` [Example 192, 1-{4-[4-(dimethylamino)-6-(8-oxa-3-azabicyclo[3.2.1]oct-3-yl)-1,3,5-triazin-2-yl]phenyl}-3-pyridin-3-ylurea], the IC50 is 43 nM at Human mTOR (FLAG-TOR), 1120 nM on PI3K-α (read-out: IC50 PI3Kα), 453 nM at PI3K-γ (read-out: IC50 PI3Kγ) and 620 nM in experiment [1].

On to `CC(C)Nc1nc(-c2ccc(NC(=O)Nc3cccnc3)cc2)nc(N2CC3CCC(C2)O3)n1` [Example 193, 1-{4-[4-(isopropylamino)-6-(8-oxa-3-azabicyclo[3.2.1]oct-3-yl)-1,3,5-triazin-2-yl]phenyl}-3-pyridin-3-ylurea], for which the concentration for half-maximal inhibition (IC50) on Human mTOR (FLAG-TOR) is 0.8 nM; at PI3K-α (read-out: IC50 PI3Kα), 401 nM; at PI3K-γ (read-out: IC50 PI3Kγ), 3130 nM; in experiment [1] it was 105 nM.

Take `CNC(=O)Nc1ccc(-c2nc(NC(C)C)nc(N3CC4CCC(C3)O4)n2)cc1` [Example 212, 1-methyl-3-(4-{4-[(1-methylethyl)amino]-6-(8-oxa-3-azabicyclo[3.2.1]oct-3-yl)-1,3,5-triazin-2-yl}phenyl)urea]: the IC50 on Human mTOR (FLAG-TOR) was 6.4 nM; at PI3K-α (read-out: IC50 PI3Kα), 902 nM; on PI3K-γ (read-out: IC50 PI3Kγ) it was 8770 nM; in experiment [1] it was 420 nM.

As to `CC(C)Nc1nc(-c2ccc(NC(=O)Nc3ccncc3)cc2)nc(N2CC3CCC(C2)O3)n1` [Example 215, 1-(4-{4-[(1-methylethyl)amino]-6-(8-oxa-3-azabicyclo[3.2.1]oct-3-yl)-1,3,5-triazin-2-yl}phenyl)-3-pyridin-4-ylurea], the IC50 on Human mTOR (FLAG-TOR) turned out to be 1.2 nM; at PI3K-α (read-out: IC50 PI3Kα), 187 nM; on PI3K-γ (read-out: IC50 PI3Kγ) it was 3160 nM; in experiment [1], 30 nM.

On to `CC(C)Nc1nc(-c2ccc(NC(=O)Nc3ccc(N4CCN(C)CC4)cc3)cc2)nc(N2CC3CCC(C2)O3)n1` [Example 217, 1-(4-{4-[(1-methylethyl)amino]-6-(8-oxa-3-azabicyclo[3.2.1]oct-3-yl)-1,3,5-triazin-2-yl}phenyl)-3-[4-(4-methylpiperazin-1-yl)phenyl]urea], for which the half-maximal inhibitory concentration (IC50) was 3.2 nM at Human mTOR (FLAG-TOR), 253 nM at PI3K-α (read-out: IC50 PI3Kα), 3230 nM on PI3K-γ (read-out: IC50 PI3Kγ) and 13 nM in experiment [1].

For the molecule `CC(C)Nc1nc(-c2ccc(NC(=O)Nc3ccc(C(=O)NN(C)C)cc3)cc2)nc(N2CC3CCC(C2)O3)n1` [Example 218, 1-{4-[(2,2-dimethylhydrazino)carbonyl]phenyl}-3-(4-{4-[(1-methylethyl)amino]-6-(8-oxa-3-azabicyclo[3.2.1]oct-3-yl)-1,3,5-triazin-2-yl}phenyl)urea], the IC50 was determined as 2.6 nM on Human mTOR (FLAG-TOR), 279 nM on PI3K-α (read-out: IC50 PI3Kα), 2780 nM on PI3K-γ (read-out: IC50 PI3Kγ) and 12 nM in experiment [1].

On to `CC(C)Nc1nc(-c2ccc(NC(=O)Nc3ccc(C(=O)NN4CCCC4)cc3)cc2)nc(N2CC3CCC(C2)O3)n1` [Example 219, 4-{[(4-{4-[(1-methylethyl)amino]-6-(8-oxa-3-azabicyclo[3.2.1]oct-3-yl)-1,3,5-triazin-2-yl}phenyl)carbamoyl]amino}-N-pyrrolidin-1-ylbenzamide], for which the IC50 at Human mTOR (FLAG-TOR) was 5.9 nM; on PI3K-α (read-out: IC50 PI3Kα) it was 561 nM; on PI3K-γ (read-out: IC50 PI3Kγ), 8280 nM; in experiment [1], 40 nM.

Turning to `CC(C)Nc1nc(-c2ccc(NC(=O)Nc3ccc(OCCN(C)C)cc3)cc2)nc(N2CC3CCC(C2)O3)n1` [Example 220, 1-{4-[2-(dimethylamino)ethoxy]phenyl}-3-(4-{4-[(1-methylethyl)amino]-6-(8-oxa-3-azabicyclo[3.2.1]oct-3-yl)-1,3,5-triazin-2-yl}phenyl)urea], the IC50 on Human mTOR (FLAG-TOR) was determined as 3.5 nM; at PI3K-α (read-out: IC50 PI3Kα) it was 275 nM; at PI3K-γ (read-out: IC50 PI3Kγ), 2830 nM; in experiment [1] it was 40 nM.

For the origin of these results see US20090304692A1, “TRIAZINE COMPOUNDS AS PI3 KINASE AND MTOR INHIBITORS” (Wyeth, priority 2008, published 2009).
